Laboratory results as given in patent publication US20190298722A1, “USE OF AN INHIBITOR OF THE DE NOVO SYNTHESIS OF PURINES, IN THE TREATMENT OF ADENYLOSUCCINATE LYASE DEFICIENCY” (ASSISTANCE PUBLIQUE-HOPITAUX DE PARIS, priority 2016, published 2019).

Experiments:
[1] = system: patients with ADSL deficiency; assay: Vineland scale (adaptive skills) during allopurinol treatment; format: in vivo, human; set-up: Vineland standardized score, Communication / Vineland standardized score, Daily life / Vineland standardized score, Social skills / Vineland standardized score, Motor skills / Vineland standardized score, TOTAL: scale not given here
Procedure: Clinical characterization of the patients was carried out before starting treatment (T1) in accordance with the ICD 10 classification, using standardized tools: • A semi-structured interview by means of the Autism Diagnostic Interview (ADI-R): this is a semi-structured interview intended to classify symptoms reported by parents in the domain of communication, social interaction, restricted and stereotyped behaviours or sensory issues. Scores are established for the current period and, if necessary, for the period when the difficulties were most serious, between the ages of 4 and 5 years. A score is established for each of the three domains based on responses provided by the parents and the judgement of the interviewer. Scores above the thresholds in the 3 domains support a diagnosis of autism, and in one or two domains support a diagnosis of a pervasive developmental disorder. Scores below the thresholds in the 3 domains make it possible to rule out diagnosis of an autism spectrum disorder if the ADI-R results converge with the clinical assessment of the child. • A semi-structured interview using the Vineland 2 scale: this is a semi-structured interview which makes it possible to assess the adaptive skills of the child in the domains of communication, daily life, social skills and motor skills. From the description of their child's daily living skills, equivalent developmental ages and standardized scores are calculated, making it possible to describe the developmental and adaptive profile of the child. • A developmental assessment using the Psychoeducational Profile (PEP 3): this is a direct assessment of the skills of the child in several domains of their development, particularly suited to children who display a developmental disability. Six domains of development are assessed: verbal and preverbal cognition (VPC), expressive language (EL), receptive language (RL), gross motor skills (GM), fine motor skills (FM) and visual-motor imitation (VMI). The results are expressed in terms of equivalent developmental age and emerging score, when the exercises are partially completed. The number of emerging skills, or the difference between the actual ages and the emerging scores, are evidence of the development potential of the children. • The Conners scale: this is an assessment scale intended to quantify the symptoms of inattentiveness, agitation, impulsiveness, anxiety, somatization, behavioural difficulties and learning difficulties. There are several versions of the questionnaire, one for parents, the other for teachers or professionals. The scoring makes it possible to obtain an overall standardized score, considered to be significant when it is greater than 1.5.
Clinical re-assessments were carried out 6 months and one year after treatment with allopurinol and compared to the first assessment in the absence of treatment with allopurinol. They comprised: • At 6 months: scoring of the Vineland and Conners scales • At 12 months: scoring of the Vineland and Conners scales and completion of PEP-3.
Clinical progress at 200 mg of allopurinol was measured for each child based on the Conner and Vineland scale scores before treatment (T1), at 6 months (T2) and at 12 months of treatment (T3) with regard to behaviour and function.

[2] = system: patients with ADSL deficiency; assay: Urinary assay of SAICAr and S-Ado by HPLC with UV detection (HPLC-DAD); format: in vivo, human; conditions: 3 patients, after 6 and 12 months of treatment with allopurinol
Procedure: SAICAr and S-Ado metabolites in urine were assayed using HPLC-DAD and HPLC coupled with tandem mass spectrometry (HPLC-MS/MS) according to the techniques recently described (Ceballos-Picot et al. 2015; Zikanova et al. 2014).

[3] = Patient 1, T2 (6 months), T1 69
[4] = Patient 1, T3 (12 months), T1 69

O=c1ncnc2[nH][nH]cc1-2 [allopurinol, 1,2-dihydro-4H-pyrazolo[3,4-d]pyrimidin-4-one] was tested, and the “standardized scores on the Vineland scale in all domains” value ([1]; 3 patients, during treatment, more pronounced for communication) was “improvement”, the “Vineland standardized score, Communication” value ([1]; Patient 1, T2 (6 months), T1 67) was 65 and the “Vineland standardized score, Daily life” value [1, 3] was 71. The “Vineland standardized score, TOTAL” value [1, 3] was 76, the “Vineland standardized score, Social skills” value ([1]; Patient 1, T2 (6 months), T1 73) was 66 and the “Vineland standardized score, Communication” value ([1]; Patient 1, T3 (12 months), T1 67) was 75. The “Vineland standardized score, Daily life” value [1, 4] was 74, the “Vineland standardized score, TOTAL” value [1, 4] was 74 and the “Vineland standardized score, Social skills” value ([1]; Patient 1, T3 (12 months), T1 73) was 75. The “Vineland standardized score, Communication” value ([1]; Patient 2, T2 (6 months), T1 57) was 72, the “Vineland standardized score, Motor skills” value ([1]; Patient 2, T2 (6 months), T1 61) was 67 and the “Vineland standardized score, TOTAL” value ([1]; Patient 2, T2 (6 months), T1 69) was 79. The “Vineland standardized score, Social skills” value ([1]; Patient 2, T2 (6 months), T1 79) was 83, the “Vineland standardized score, Daily life” value ([1]; Patient 2, T2 (6 months), T1 81) was 87 and the “Vineland standardized score, Communication” value ([1]; Patient 2, T3 (12 months), T1 57) was 75. For the same compound, the “Vineland standardized score, Motor skills” value ([1]; Patient 2, T3 (12 months), T1 61) was 85, the “Vineland standardized score, TOTAL” value ([1]; Patient 2, T3 (12 months), T1 69) was 82 and the “Vineland standardized score, Social skills” value ([1]; Patient 2, T3 (12 months), T1 79) was 83. For the same compound, the “Vineland standardized score, Daily life” value ([1]; Patient 2, T3 (12 months), T1 81) was 87, the “Vineland standardized score, Communication” value ([1]; Patient 3, T2 (6 months), T1 65) was 69 and the “Vineland standardized score, Motor skills” value ([1]; Patient 3, T2 (6 months), T1 67) was 70. The “Vineland standardized score, TOTAL” value ([1]; Patient 3, T2 (6 months), T1 71) was 77, the “Vineland standardized score, Daily life” value ([1]; Patient 3, T2 (6 months), T1 75) was 87 and the “Vineland standardized score, Social skills” value ([1]; Patient 3, T2 (6 months), T1 76) was 83. The “Vineland standardized score, Communication” value ([1]; Patient 3, T3 (12 months), T1 65) was 74, the “Vineland standardized score, Motor skills” value ([1]; Patient 3, T3 (12 months), T1 67) was 72 and the “Vineland standardized score, TOTAL” value ([1]; Patient 3, T3 (12 months), T1 71) was 80. For the same compound, the “Vineland standardized score, Daily life” value ([1]; Patient 3, T3 (12 months), T1 75) was 87, the “Vineland standardized score, Social skills” value ([1]; Patient 3, T3 (12 months), T1 76) was 88 and the “SAICAr and S-Ado in urine (HPLC-DAD)” value [2] was “significant reduction”.
